# Values of other authors in article PMC4457351 (Journal of Visualized Experiments : JoVE, 2014).
# Conditions: read-out: Kd(calcium)
substance,measurement,value
Fluo-4,Kd,~345 nM
